Reference: PMC1851987, “Identification of the Endogenous Key Substrates of the Human Organic Cation Transporter OCT2 and Their Implication in Function of Dopaminergic Neurons” (PLoS ONE, 2007)
Numbering of substitutions follows the chain as printed. Names and notes keep the numbering of the source. Marks after values point to notes of the source that are not given here.

Tests used:
[1] = system: SH-SY5Y cells; test: Uptake of cyclo(his-pro) and salsolinol into SH-SY5Y cells with transport inhibitors; type: cell-based, human; conditions: substrates 10 µmol/l, 5 min; inhibitors 10 µmol/l (decynium-22 1 µmol/l)
Description: (§1) (D) Relative quantitative real-time expression of OCT2 mRNA in distinct areas of normal human brain and neuroepithelial tumors (TaqMan Assay) normalized to GAPDH.
(§2) For uptake experiments, cells were grown on polystyrene dishes of 60 mm diameter to at least 80% confluence. Prior to addition of test compounds, culture medium was replaced by 3 ml HEPES-modified Krebs buffer (140.0 mmol/l NaCl, 5.0 mmol/l KCl, 2.0 mmol/l CaCl2, 1.0 mmol/l MgCl2, 10.0 mmol/l HEPES, and 5.0 mmol/l D-glucose, adjusted to pH 7.40), and cells were left to equilibrate for 60 min at 37°C. Uptake was terminated after indicated times by washing cells with ice-cold buffer. Cells were lysed with 1 ml of 4 mmol/l perchloric acid and lysates subjected to LC-MS-MS quantification. Cellular protein content was determined after solubilization of perchloric acid precipitates with 1 ml of […] NaOH using the bicinchoninic assay (BCA Protein Assay Kit, Pierce).
(§3) Chromatographic separations were performed on Hypercarb (5 µm, 50×2.1 mm; Thermo Electron), Aquasil C18 (3 µm, 100×4.6 mm; Thermo Electron), or Hilic columns (5 µm, 100×3.0 mm; Waters Atlantis) by isocratic or gradient elution using 0.1% aqueous formic acid (A) and acetonitrile or methanol (B) as solvent system. For quantification, SRM transitions of a precursor ion [M+H]^+ into a specific fragment ion (peak area ratios relative to IS) were recorded in positive ESI mode at 1.0–1.5 mTorr collision pressure and 10–40 eV collision energy. External calibration curves were obtained from serial dilutions of the analyte in 4 mmol/l HClO4 by linear or logistic regression. Detection limit was at least 0.001 nmol/mg protein.

[2] = system: HTZ-146 cells; test: Uptake of cyclo(his-pro) and salsolinol into HTZ-146 cells with transport inhibitors; type: cell-based, human; conditions: substrates 10 µmol/l, 5 min; inhibitors 10 µmol/l (decynium-22 1 µmol/l)
Description: as §1, §2, §3

[3] = system: OCT2-transfected HEK-293 cells; test: Intracellular metabolite N-methyl-salsolinol after salsolinol incubation, OCT2-transfected HEK-293 cells; type: in vitro ADME, human; conditions: mean±s.e.m., n = 3
[4] = system: SH-SY5Y cells; test: Intracellular metabolite N-methyl-salsolinol after salsolinol incubation, SH-SY5Y cells; type: in vitro ADME, human; conditions: mean±s.e.m., n = 3
From the text: (§4) Beyond its physiological neuromodulatory function, there is considerable interest in the pathophysiologic role of salsolinol. […] It has been hypothesized that especially N-methyl-salsolinol is etiologically involved in apoptotic nigral cell death in PD by promoting calcium-triggered disruption of mitochondrial permeability transition.[14]

[5] = system: HTZ-146 cells; test: Intracellular metabolite N-methyl-salsolinol after salsolinol incubation, HTZ-146 cells; type: in vitro ADME, human; conditions: mean±s.e.m., n = 3
From the text: as §4

[6] = molecular target: T1, organic cation transporter OCT2 (wild-type 400R) (Homo sapiens, UniProt O15244, S270A); test: Specific uptake into OCT2 (wild-type) transfected HEK-293 cells vs empty vector, LC-MS-MS; conditions: 5 min of incubation with 10 µmol/l
T1 sequence (O15244 1-555 S270A): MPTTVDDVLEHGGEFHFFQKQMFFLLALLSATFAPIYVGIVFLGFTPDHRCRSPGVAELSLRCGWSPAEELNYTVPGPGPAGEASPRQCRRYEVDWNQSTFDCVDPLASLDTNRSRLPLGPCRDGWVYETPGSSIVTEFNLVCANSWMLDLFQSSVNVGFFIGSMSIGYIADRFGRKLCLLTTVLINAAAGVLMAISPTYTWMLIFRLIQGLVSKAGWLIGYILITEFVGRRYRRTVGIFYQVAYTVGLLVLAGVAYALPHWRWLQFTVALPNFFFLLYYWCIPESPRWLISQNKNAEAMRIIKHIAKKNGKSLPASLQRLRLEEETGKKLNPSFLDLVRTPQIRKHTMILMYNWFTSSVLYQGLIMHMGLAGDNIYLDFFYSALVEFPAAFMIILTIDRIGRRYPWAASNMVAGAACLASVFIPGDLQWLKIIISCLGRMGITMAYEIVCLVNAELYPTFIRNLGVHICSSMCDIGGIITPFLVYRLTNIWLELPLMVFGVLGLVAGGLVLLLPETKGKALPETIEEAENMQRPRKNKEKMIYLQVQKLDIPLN

[7] = molecular target: T2, norepinephrine transporter (NET) (Homo sapiens, UniProt P23975); test: Specific uptake into norepinephrine transporter (NET) transfected HEK-293 cells; type: cell-based; conditions: 10 µmol/l, 5 min incubation
T2 construct: expressed in transfected cells; host or cells: HEK-293, stably transfected; cDNA from C; Pifl (University of Vienna)
T2 sequence (P23975 whole entry): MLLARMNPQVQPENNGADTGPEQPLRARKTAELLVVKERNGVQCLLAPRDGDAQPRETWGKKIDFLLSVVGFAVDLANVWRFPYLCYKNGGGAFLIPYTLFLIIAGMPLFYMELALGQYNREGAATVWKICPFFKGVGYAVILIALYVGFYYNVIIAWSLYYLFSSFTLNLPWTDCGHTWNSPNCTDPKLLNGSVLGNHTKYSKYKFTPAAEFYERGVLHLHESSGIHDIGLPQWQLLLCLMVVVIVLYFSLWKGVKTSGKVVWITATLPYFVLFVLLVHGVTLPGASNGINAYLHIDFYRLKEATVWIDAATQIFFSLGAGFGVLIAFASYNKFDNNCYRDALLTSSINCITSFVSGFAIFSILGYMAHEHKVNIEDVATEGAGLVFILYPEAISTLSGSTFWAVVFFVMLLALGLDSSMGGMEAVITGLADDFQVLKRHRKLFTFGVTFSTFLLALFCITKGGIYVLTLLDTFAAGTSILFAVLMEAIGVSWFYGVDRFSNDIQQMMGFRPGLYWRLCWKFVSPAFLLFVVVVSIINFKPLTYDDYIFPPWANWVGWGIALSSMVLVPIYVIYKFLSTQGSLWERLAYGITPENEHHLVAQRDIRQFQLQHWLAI
From the text: Pifl (University of Vienna).
1. Burnette WB, Bailey MD, Kukoyi S, Blakely RD, Trowbridge CG, et al. (1996) Human norepinephrine transporter kinetics using rotating disk electrode voltammetry. Anal Chem 68: 2932–2938. (0.90 MB TIF) Click here for additional data file.

[8] = system: SH-SY5Y cells; test: MTT reduction cell viability assay, SH-SY5Y cells; type: cell-based, human
Description: (§5) Cell viability was assessed in HEK-293 cells, human dopaminergic neuroblastoma cells (SH-SY5Y) and human glioblastoma cells (HTZ-146) by the MTT test as described.[22] […] For indication of metabolic activity, cells were treated with MTT reagent (15 µl of 1 mg/ml stock solution per well) for 1 h, and after drying of culture plates for 1 h at 37°C, the resulting formazan dye was extracted with isopropanol/HCl (100 µl 0.04 mol/l per well) and absorbance was determined spectrophotometrically at 568 nm. Results were in agreement with the data obtained by the tryptan blue exclusion method (data not shown).

[9] = system: HTZ-146 cells; test: MTT reduction cell viability assay, HTZ-146 cells; type: cell-based, human
Description: as §5

[10] = molecular target: T1, organic cation transporter OCT2 (wild-type 400R); conditions: cited from earlier work
[11] = substrate: O=C1NC(Cc2c[nH]cn2)C(=O)N2CCCC12; test: Specific uptake into EMT-transfected HEK-293 cells; type: cell-based, human; conditions: other: specific uptake, 1 min of loading, mean (s.e.m.); pH 7.4; 37.0 °C
[12] = substrate: O=C1NC(Cc2c[nH]cn2)C(=O)N2CCCC12; test: cells, lysate or membranes; conditions: mean (s.e.m.), pH 7.4, 37.0 °C
[13] = substrate: O=C1NC(Cc2c[nH]cn2)C(=O)N2CCCC12; test: Specific uptake into OCT1-transfected HEK-293 cells; type: cell-based, human; conditions: other: specific uptake, 1 min of loading, mean (s.e.m.); pH 7.4; 37.0 °C
[14] = 48 h incubation with 10 µmol/l salsolinol
[15] = 48 h incubation with 100 µmol/l salsolinol
[16] = 48 h, non-pretreated, read-out: EC50 (95% confidence interval), cell viability
[17] = other: specific uptake, 1 min of loading, n = 3

Molecule: CC(COc1ccccc1)N(CCCl)Cc1ccccc1 (stereo not shown) [phenoxybenzamine]
- effect of coincubated inhibitor on uptake of cyclo(his-pro) and salsolinol [1]: almost abolished
- effect of coincubated inhibitor on uptake of cyclo(his-pro) and salsolinol [2]: almost abolished

Molecule: CC1c2cc(O)c(O)cc2CCN1C (stereo not shown) [N-methyl-salsolinol]
- intracellular concentration of the metabolite N-methyl-salsolinol [3, 14]: 0.89±0.06 nmol/mg protein
- intracellular concentration of the metabolite N-methyl-salsolinol [3, 15]: 7.56±0.41 nmol/mg protein
- intracellular concentration of the metabolite N-methyl-salsolinol [4, 14]: 0.18±0.01 nmol/mg protein
- intracellular concentration of the metabolite N-methyl-salsolinol [4, 15]: 1.28±0.11 nmol/mg protein
- intracellular concentration of the metabolite N-methyl-salsolinol [5, 14]: 0.17±0.01 nmol/mg protein
- intracellular concentration of the metabolite N-methyl-salsolinol [5, 15]: 1.16±0.06 nmol/mg protein
- uptake rate relative to salsolinol [6]: about two-thirds

Molecule: NCCc1ccc(O)cc1 [tyramine, reference compound]
- substrate of NET (specific uptake) [7]: excellent NET substrate

Molecule: C[C@]12N[C@H](Cc3ccccc31)c1ccccc12 [(+)-MK-801, reference compound]
- effect on cell death caused by glutamate as well as salsolinol ([8]; (+)-MK-801 10 µmol/l present): attenuated
- effect on cell death caused by glutamate as well as salsolinol ([9]; (+)-MK-801 10 µmol/l present): attenuated

Molecule: CNCCCN1c2ccccc2CCc2ccccc21 [desipramine]
- effect of coincubated inhibitor on uptake of cyclo(his-pro) and salsolinol [1]: not different from control conditions
- effect of coincubated inhibitor on uptake of cyclo(his-pro) and salsolinol [2]: not different from control conditions

Molecule: NCCc1ccc(O)c(O)c1 [dopamine]
- OCT2-mediated transport [10]: no significant OCT2-mediated transport

Molecule: Fc1ccc(C(OCCN2CCN(CCCc3ccccc3)CC2)c2ccc(F)cc2)cc1 [GBR12909]
- effect of coincubated inhibitor on uptake of cyclo(his-pro) and salsolinol [1]: not different from control conditions
- effect of coincubated inhibitor on uptake of cyclo(his-pro) and salsolinol [2]: not different from control conditions

Molecule: CCN1/C(=C/c2ccc3ccccc3[n+]2CC)C=Cc2ccccc21.[I-] [decynium-22]
- effect of coincubated inhibitor on uptake of cyclo(his-pro) and salsolinol [1]: almost abolished
- effect of coincubated inhibitor on uptake of cyclo(his-pro) and salsolinol [2]: almost abolished

Molecule: N[C@@H](CCC(=O)O)C(=O)O [glutamate, reference compound]
- EC50 [8, 16]: 389 µM
- EC50 [9, 16]: 585 µM

B1: EMT (Homo sapiens) (protein)
chain: MPSFDEALQRVGEFGRFQRRVFLLLCLTGVTFAFLFVGVVFLGTQPDHYWCRGPSAAALAERCGWSPEEEWNRTAPASRGPEPPERRGRCQRYLLEAANDSASATSALSCADPLAAFPNRSAPLVPCRGGWRYAQAHSTIVSEFDLVCVNAWMLDLTQAILNLGFLTGAFTLGYAADRYGRIVIYLLSCLGVGVTGVVVAFAPNFPVFVIFRFLQGVFGKGTWMTCYVIVTEIVGSKQRRIVGIVIQMFFTLGIIILPGIAYFIPNWQGIQLAITLPSFLFLLYYWVVPESPRWLITRKKGDKALQILRRIAKCNGKYLSSNYSEITVTDEEVSNPSFLDLVRTPQMRKCTLILMFAWFTSAVVYQGLVMRLGIIGGNLYIDFFISGVVELPGALLILLTIERLGRRLPFAASNIVAGVACLVTAFLPEGIAWLRTTVATLGRLGITMAFEIVYLVNSELYPTTLRNFGVSLCSGLCDFGGIIAPFLLFRLAAVWLELPLIIFGILASICGGLVMLLPETKGIALPETVDDVEKLGSPHSCKCGRNKKTPVSRSHL
notes: The cDNAs encoding the organic cation transporters; expressed in transfected cells; host or cells: HEK-293, stably transfected, pcDNA3
- Km [11]: 126 (38) μmol/l

B2: organic cation transporter OCT2 (wild-type 400R) (Homo sapiens; S270A) (protein)
chain: T1 sequence (O15244 1-555 S270A)
- Km [12, 17]: 74 (12) µmol/l
- Vmax [12, 17]: 0.003 µmol/min/mg
- Vmax/Km [12, 17]: 41 µl/mg protein/min

B3: OCT2 variant K432Q (Homo sapiens; K432Q/S270A) (protein)
chain: T1 sequence (O15244 1-555 S270A) with K432Q
- Km ([12]; other: 1 min of loading): 78 (12) µmol/l
- Vmax ([12]; other: 1 min of loading): 0.0031 µmol/min/mg

B4: OCT2 variant M165I (Homo sapiens; M165I/S270A) (protein)
chain: T1 sequence (O15244 1-555 S270A) with M165I
- Km ([12]; other: 1 min of loading): 78 (15) µmol/l
- Vmax ([12]; other: 1 min of loading): 0.0029 µmol/min/mg

B5: OCT2 variant A270S (Homo sapiens) (protein)
chain: T1 sequence (O15244 1-555 S270A) with A270S
- Km ([12]; other: 1 min of loading): 75 (11) µmol/l
- Vmax ([12]; other: 1 min of loading): 0.0032 µmol/min/mg

B6: OCT2 variant R400C (Homo sapiens; R400C/S270A) (protein)
chain: T1 sequence (O15244 1-555 S270A) with R400C
- Km ([12]; other: 1 min of loading): 51 (6)^# µmol/l
- Vmax ([12]; other: 1 min of loading): 0.001 µmol/min/mg

B7: OCT1 (Homo sapiens) (protein)
chain: MPTVDDILEQVGESGWFQKQAFLILCLLSAAFAPICVGIVFLGFTPDHHCQSPGVAELSQRCGWSPAEELNYTVPGLGPAGEAFLGQCRRYEVDWNQSALSCVDPLASLATNRSHLPLGPCQDGWVYDTPGSSIVTEFNLVCADSWKLDLFQSCLNAGFLFGSLGVGYFADRFGRKLCLLGTVLVNAVSGVLMAFSPNYMSMLLFRLLQGLVSKGNWMAGYTLITEFVGSGSRRTVAIMYQMAFTVGLVALTGLAYALPHWRWLQLAVSLPTFLFLLYYWCVPESPRWLLSQKRNTEAIKIMDHIAQKNGKLPPADLKMLSLEEDVTEKLSPSFADLFRTPRLRKRTFILMYLWFTDSVLYQGLILHMGATSGNLYLDFLYSALVEIPGAFIALITIDRVGRIYPMAMSNLLAGAACLVMIFISPDLHWLNIIIMCVGRMGITIAIQMICLVNAELYPTFVRNLGVMVCSSLCDIGGIITPFIVFRLREVWQALPLILFAVLGLLAAGVTLLLPETKGVALPETMKDAENLGRKAKPKENTIYLKVQTSEPSGT
notes: as for B1
- Km [13]: 655 (191) μmol/l
